Holding throughout (assay type): cell-based
The target in assay [1] is T1, Am5-HT2β (Apis mellifera, UniProt A0ACM8QMF9).
T1 construct: gene 5-HT2beta; cDNA from drone brain
Briefly: Fluo-4 intracellular Ca2+ assay in stable HEK […] cells.

For assay [2], the target named is T2, Am5-HT2α (Apis mellifera, UniProt A0A8U1C256).
T2 construct: gene 5-HT2alpha; cDNA from drone brain
The assay is described as above.

Assay [3] concerns the target T2, Am5-HT2α. Briefly: Fluo-4 intracellular Ca2+ assay in stable HEK […] cells, inhibition of serotonin response. Conditions: read-out: Am5-HT2αIC50.
Assay [4] concerns the target T1, Am5-HT2β. The description is as above. The following applies: read-out: Am5-HT2βIC50.

pEC50, pIC50: −log10 of the molar value. Read-outs that look alike come from different tables or passages of the source.

T1 sequence (A0ACM8QMF9 entry or part of it): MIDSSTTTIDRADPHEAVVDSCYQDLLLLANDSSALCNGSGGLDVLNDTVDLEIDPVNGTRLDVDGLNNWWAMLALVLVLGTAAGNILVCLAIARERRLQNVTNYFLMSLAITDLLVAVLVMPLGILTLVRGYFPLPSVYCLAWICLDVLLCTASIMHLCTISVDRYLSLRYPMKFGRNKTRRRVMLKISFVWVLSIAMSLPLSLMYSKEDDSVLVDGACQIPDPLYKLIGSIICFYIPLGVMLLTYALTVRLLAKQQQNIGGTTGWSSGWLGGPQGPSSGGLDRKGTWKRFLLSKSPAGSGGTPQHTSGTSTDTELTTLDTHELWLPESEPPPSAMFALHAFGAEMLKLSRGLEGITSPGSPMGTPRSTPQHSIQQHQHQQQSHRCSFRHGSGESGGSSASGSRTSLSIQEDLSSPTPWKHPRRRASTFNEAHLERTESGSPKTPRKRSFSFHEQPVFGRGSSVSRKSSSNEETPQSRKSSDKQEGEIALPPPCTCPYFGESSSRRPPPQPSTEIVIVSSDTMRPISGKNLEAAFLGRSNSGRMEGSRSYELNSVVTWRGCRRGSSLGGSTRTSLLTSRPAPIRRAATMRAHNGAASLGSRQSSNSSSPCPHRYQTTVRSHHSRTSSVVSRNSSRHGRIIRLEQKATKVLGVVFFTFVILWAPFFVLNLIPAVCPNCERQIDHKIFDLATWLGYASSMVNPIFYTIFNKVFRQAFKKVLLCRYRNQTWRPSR
T2 sequence (A0A8U1C256 entry or part of it): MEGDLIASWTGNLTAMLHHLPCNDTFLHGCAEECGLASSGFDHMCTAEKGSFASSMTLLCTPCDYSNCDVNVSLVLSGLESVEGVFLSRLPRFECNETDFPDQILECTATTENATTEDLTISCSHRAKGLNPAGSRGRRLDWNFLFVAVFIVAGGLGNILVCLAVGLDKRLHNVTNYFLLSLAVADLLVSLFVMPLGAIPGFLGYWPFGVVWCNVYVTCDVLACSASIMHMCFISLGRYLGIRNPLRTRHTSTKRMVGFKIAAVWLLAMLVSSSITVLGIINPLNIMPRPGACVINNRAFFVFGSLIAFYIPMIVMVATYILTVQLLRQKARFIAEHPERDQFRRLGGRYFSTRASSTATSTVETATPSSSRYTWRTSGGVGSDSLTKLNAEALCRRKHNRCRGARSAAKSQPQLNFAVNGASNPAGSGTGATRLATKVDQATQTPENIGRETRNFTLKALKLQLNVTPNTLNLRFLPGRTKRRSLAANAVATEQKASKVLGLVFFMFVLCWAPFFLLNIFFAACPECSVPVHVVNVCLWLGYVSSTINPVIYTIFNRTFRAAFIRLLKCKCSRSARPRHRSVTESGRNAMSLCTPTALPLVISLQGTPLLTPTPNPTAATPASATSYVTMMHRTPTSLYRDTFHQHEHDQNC

As a reminder, the pEC50 is the EC50 on a negative log10 scale, so that one unit is a factor of ten. As for `NCCc1c[nH]c2ccc(O)cc12` [serotonin], the pEC50 in assay [1] (read-out: EC50) was 7.49; in assay [2] (read-out: EC50) it was 7.59. Take `CC[C@@H](CO)NC(=O)[C@@H]1C=C2c3cccc4c3c(cn4C)C[C@H]2N(C)C1` [methysergide]: the pIC50 in assay [3] was 5.66. Same read-out and setting: the result for `Cn1ccc2cc(NC(=O)Nc3cccnc3)ccc21` [SB-200646] reads 7.00. Consider `COc1ccc2[nH]cc(CCN)c2c1` [5-methoxytryptamine], for which the pEC50 in assay [1] is 7.22; in assay [2], 7.15. `CSc1ccc2c(c1)C(N1CCN(C)CC1)Cc1ccccc1S2` (stereo not shown) [methiothepin]: the pIC50 in assay [3] is 6.22. Regarding `CCCN(CCC)C1CCc2cccc(O)c2C1` (stereo not shown) [8-OH-DPAT, 8-hydroxy-2-(di-n-propylamino)tetralin], the figures for the pEC50 in assay [1] (read-out: EC50) and in assay [2] (read-out: EC50) were 6.25 and 4.25, respectively. On to `O=C(c1ccc(F)cc1)C1CCN(CCn2c(=O)[nH]c3ccccc3c2=O)CC1` [ketanserin], for which, in assay [4], the pIC50 is 5.82.

(Values after PMC3855752, “Function and Distribution of 5-HT2 Receptors in the Honeybee (Apis mellifera)” (PLoS ONE, 2013).)
